Assay results: ChEMBL document CHEMBL1201862, “PubChem BioAssay data set” (2004)
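Growth conditions: 96-well plates. Treatment: test compound, 48 hours, 5 concentrations. Analysis: linear interpolation between bracketing concentrations; unreached endpoints set to highest concentration. Here, GI50 denotes the concentration required for 50% inhibition of growth.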 Calls of active or inactive are those of the source. Rule as the data show it: active = GI50 up to about 1.1 µM and inactive = higher.

What was measured:
Test in all cases: inhibition of tumour cell growth, NCI panel, 48 h
[1] = test system: MCF7
[2] = test system: DU-145
[3] = test system: OVCAR-5
[4] = test system: HOP-62
[5] = test system: A498
[6] = test system: OVCAR-3
[7] = test system: BT-549
[8] = test system: SK-MEL-28
[9] = test system: UACC-62
[10] = test system: HL-60
[11] = test system: SNB-75
[12] = test system: A549
[13] = test system: SF-268
[14] = test system: PC-3
[15] = test system: HCC 2998
[16] = test system: T47D
[17] = test system: KM12
[18] = test system: KM-20L2
[19] = test system: LXFL 529
[20] = test system: HOP-18

Measured: GI50

Fc1ccc(C(OCCN2CC3CCC(C2)N3CCCc2ccccc2)c2ccc(F)cc2)cc1
inactive: [1] 3.39 µM | [2] 8.13 µM | [3] 10.6 µM | [4] 6.03 µM | [5] 4.27 µM | [6] 5.92 µM | [7] 12.4 µM | [8] 8.99 µM | [9] 9.51 µM | [10] 3.08 µM | [11] 3.37 µM | [12] 8.15 µM | [13] 4.5 µM | [14] 2.72 µM | [15] 2.87 µM | [16] 1.95 µM | [17] 3.18 µM

N=c1sc2ccccc2n1CC[S-].c1ccc2c(c1)sc1[n+]2CCS1
inactive: [1] 12.9 µM | [2] 21.2 µM | [3] 20.5 µM | [4] 17.3 µM | [5] 14.7 µM | [6] 19.3 µM | [7] 23.1 µM | [8] 18.7 µM | [9] 14 µM | [10] 22.5 µM | [11] 41.5 µM | [12] 16.9 µM | [13] 20 µM | [14] 29.8 µM | [15] 17.1 µM | [16] 23.6 µM | [17] 17.5 µM

O=C(CC1(O)C(=O)Nc2ccccc21)c1ccccc1Cl (centres undefined)
inactive: [18] > 100 µM | [3] > 100 µM | [5] > 100 µM | [6] > 100 µM | [8] > 100 µM | [9] > 100 µM | [10] > 100 µM | [11] > 100 µM | [12] > 100 µM | [13] > 100 µM | [19] > 100 µM

C=CCNC(=S)N1CC(C)C(=O)Nc2ccccc21 (centres undefined)
inactive: [18] > 100 µM | [3] > 100 µM | [4] > 100 µM | [6] > 100 µM | [8] > 100 µM | [9] > 100 µM | [10] > 100 µM | [11] 35.5 µM | [12] > 100 µM | [13] > 100 µM | [19] > 100 µM | [17] > 100 µM

O=C(CCCCCCCCC(=O)OCC1OC(n2cnc3c(=O)[nH]cnc32)C(O)C1O)OCC1OC(n2cnc3c(=O)[nH]cnc32)C(O)C1O (centres undefined)
inactive: [20] > 100 µM | [18] > 100 µM | [3] > 100 µM | [4] > 100 µM | [5] > 100 µM | [6] > 100 µM | [8] > 100 µM | [9] > 100 µM | [10] > 100 µM | [11] > 100 µM | [12] > 100 µM | [13] > 100 µM | [15] > 100 µM | [17] > 100 µM

COc1cccc(CCNC(=O)Cc2ccccc2CCO)c1
inactive: [1] > 100 µM | [2] > 100 µM | [3] > 100 µM | [4] > 100 µM | [5] > 100 µM | [6] > 100 µM | [7] > 100 µM | [8] > 100 µM | [9] > 100 µM | [10] > 100 µM | [11] > 100 µM | [12] > 100 µM | [13] > 100 µM | [14] > 100 µM | [15] > 100 µM | [16] > 100 µM | [17] > 100 µM

O=C(Cc1ccccc1)N/N=C(/c1nc2ccc([N+](=O)[O-])cc2nc1O)C(O)c1ccc(C(O)/C(=N/NC(=O)Cc2ccccc2)c2nc3ccc([N+](=O)[O-])cc3nc2O)cc1 (centres undefined)
inactive: [18] 12.4 µM | [3] 40.4 µM | [4] 44.6 µM | [5] > 100 µM | [6] 20.7 µM | [8] > 100 µM | [9] 35.6 µM | [10] 7.01 µM | [11] 31.3 µM | [12] 50.9 µM | [13] 20.2 µM | [19] 24.7 µM | [15] 27 µM

N#Cc1nc(C2OC(COC(=O)c3ccccc3)C(OC(=O)c3ccccc3)C2OC(=O)c2ccccc2)oc1N (centres undefined)
inactive: [20] 10.7 µM | [18] 39 µM | [3] 87.7 µM | [4] > 100 µM | [5] > 100 µM | [6] 34.1 µM | [8] 31 µM | [9] 38.7 µM | [10] 7.03 µM | [11] 11.3 µM | [12] 26.4 µM | [13] 15 µM | [15] 35.6 µM | [17] 18.3 µM

CCOC(=O)c1[nH]c2cc(OC)c(OC)cc2c1CN(C)C
inactive: [18] > 100 µM | [3] > 100 µM | [5] > 100 µM | [8] > 100 µM | [9] > 100 µM | [10] > 100 µM | [11] 67 µM | [12] > 100 µM | [13] > 100 µM | [15] > 100 µM | [17] > 100 µM

CCCCCCC(=O)OC[n+]1cccc(-c2c(COC(=O)NC(C)C)c(COC(=O)NC(C)C)c3n2CCC3)c1
inactive: [1] 27.6 µM | [2] 35.9 µM | [3] > 58.9 µM | [4] 42.5 µM | [5] 23 µM | [6] 41.4 µM | [7] 37.8 µM | [8] > 100 µM | [9] 20 µM | [10] 8.57 µM | [11] 35.4 µM | [12] 60 µM | [13] 20.4 µM | [14] > 56.8 µM | [15] > 100 µM | [16] 61.8 µM | [17] > 100 µM

COc1ccc(C(=O)/C=C/c2ccc(OCC(=O)O)cc2)cc1
inactive: [1] 42.8 µM | [2] > 100 µM | [3] > 100 µM | [4] > 100 µM | [5] > 100 µM | [6] 60.4 µM | [7] 38.6 µM | [8] 36.6 µM | [9] 52.1 µM | [10] > 100 µM | [11] > 100 µM | [12] > 100 µM | [13] 43.9 µM | [14] > 100 µM | [15] 27.7 µM | [16] 38.4 µM | [17] 51.5 µM

Cc1cc(-c2nc3cc(O)ccc3s2)ccc1N
inactive: [1] 17.6 µM | [2] 39.8 µM | [3] 24.7 µM | [4] 26.8 µM | [5] 24.7 µM | [6] 23.5 µM | [7] 45.8 µM | [8] 27.8 µM | [9] 19.9 µM | [10] 32.1 µM | [11] 23.7 µM | [12] 37 µM | [13] 36.7 µM | [14] 30.1 µM | [15] 37.8 µM | [16] 22.9 µM | [17] 23.2 µM

CC(C)N1CCN(c2ccc(OCC3COC(Cn4cncn4)(c4ccc(Cl)cc4Cl)O3)cc2)CC1 (centres undefined) [TERCONAZOLE]
inactive: [1] 13.2 µM | [2] 16.3 µM | [3] 15 µM | [4] 13.8 µM | [5] 14 µM | [6] 13.5 µM | [7] 14.4 µM | [8] 4.63 µM | [9] 2.34 µM | [10] 15.4 µM | [11] 12.8 µM | [12] > 35.8 µM | [13] 12.3 µM | [14] 14.6 µM | [15] 9.18 µM | [16] 18 µM | [17] 13.2 µM
